Measurements: patent US6538152B1, “Phenoxyacetic acid derivatives and medicinal compositions containing the same” (Kissei Pharmaceutical Co., Ltd., priority 1998, dated 2003)
Counter-ions that a name gives are not always drawn. Like-named read-outs stand apart in the source and are kept apart here.

Columns and labels:
[1] = molecular target: β3-adrenoceptor (Mustela putorius furo, UniProt M3YEU4); assay: Experiment for measuring β3-adrenoceptor stimulating effects (relaxation of isolated ferret urinary bladder smooth muscle, Magnus method); type: cell-based; conditions: read-out: EC50 value (concentration required to produce 50% of the relaxation of urinary bladder smooth muscle); isolated male ferret urinary bladder strips; 0% = maximal relaxation by 10^−5M forskolin
Protocol: Namely, urinary bladders of ferrets were isolated and preparations were made. The experiment was conducted according to the Magnus method. The […] tension without addition of a test compound is expressed as 100%, and the tension of maximal relaxation after addition of 10^−5M forskolin was expressed as 0%. The test compound was added cumulatively.
The Experiment for Measuring β3-adrenoceptor Stimulating Effects
Urinary bladders of male ferrets (1100 to 1400 g in body weight) were isolated and urinary bladder smooth muscle strips of approximately 10 mm in length and approximately 2 mm in width were prepared. The experiment was conducted according to the Magnus method. The preparations with a tension of 1 g were exposed to Krebs-Henseleit solution maintained at 37° C. and gassed with a mixture of 95% oxygen and 5% carbon dioxide. Basal tensions of urinary bladder were isometrically measured with a force-displacement transducer and recorded. A test compound was cumulatively added to the Magnus bath every about 5 minutes. Tension of urinary bladder smooth muscle before addition of the test compound was expressed as 100% and tension of maximal relaxation induced by 10^−5M of forskolin was expressed as 0%.

[2] = molecular target: T1, β1-adrenoceptor (Rattus norvegicus, UniProt P18090); assay: Experiment for measuring β1-adrenoceptor stimulating effects (heart rate increase in isolated rat atria, Magnus method); type: cell-based; conditions: isolated atria of male SD rats, 100% = increase after 10^−8M isoproterenol
T1 construct: Atria of male SD rats (250 to 400 g in body weight) were isolated; from tissue; host or cells: atria of male SD rats
Protocol: Namely, the experiment was conducted using atria of rats according to the Magnus method. The increment of heart rate after addition of 10^−8M isoproterenol was expressed as 100%. A test compound was added cumulatively.
The Experiment for Measuring β1-adrenoceptor Stimulating Effects
Atria of male SD rats (250 to 400 g in body weight) were isolated and the experiment was conducted according to the Magnus method. The preparations with a tension of 0.5 g were exposed to Krebs-Henseleit solution maintained at 37° C. and gassed with a mixture of 95% oxygen and 5% carbon dioxide. The cardiac contractility was isometrically measured with a force-displacement transducer, and heart rate was recorded via a tachometer. A test compound was added cumulatively. Increase of heart rate per minute after addition of 10^−8M isoproterenol was expressed as 100%.

[3] = molecular target: T2, β2-adrenoceptor (Rattus norvegicus, UniProt P10608); assay: Experiment for measuring β2-adrenoceptor stimulating effects (inhibition of spontaneous contraction of isolated pregnant rat uterus, Magnus method); type: cell-based; conditions: isolated uteri of pregnant SD rats (pregnancy day 21), sum of contractions during 5 minutes
T2 construct: Uteri of pregnant SD rats (pregnancy day 21) were isolated; from tissue; host or cells: uterus (myometrium strips) of pregnant SD rats, day 21
Protocol: Also, uteri of pregnant rats were isolated and preparations were made. The experiment was conducted according to the Magnus method. The sum of uterine contractions during 5 minutes before addition of a test compound was expressed as 100%. The test compound was added cumulatively.
The Experiment for Measuring β2-adrenoceptor Stimulating Effects
Uteri of pregnant SD rats (pregnancy day 21) were isolated and longitudinal strips of approximately 15 mm in length and approximately 5 mm in width free from the basal plate were prepared. The experiment was conducted according to the Magnus method. The preparations with a tension of 0.5 g were exposed to Locke-Ringer solution maintained at 37° C. and gassed with a mixture of 95% oxygen and 5% carbon dioxide. Spontaneous contractions of myometrium were isometrically measured with a force-displacement transducer and recorded. A test compound was cumulatively added to the Magnus bath every 5 minutes.

[4] = test system: male ICR rats; assay: Acute toxicity test; type: in vivo, rat; conditions: male ICR rats of 4 weeks age, oral, 2 g/kg, during 24 hours after the administration, hydrochloride
Protocol: Furthermore, the compounds represented by the above general formula (I) of the present invention are very safe.
To male ICR rats of 4 weeks age was administered orally ethyl 2-[2-chloro-4-[2-[[(1S,2R)-2-hydroxy-2-(4-hydroxyphenyl)1-methylethyl]amino]ethyl]phenoxy]acetate hydrochloride at a does of 2 g/kg.

T1 sequence (P18090 whole entry): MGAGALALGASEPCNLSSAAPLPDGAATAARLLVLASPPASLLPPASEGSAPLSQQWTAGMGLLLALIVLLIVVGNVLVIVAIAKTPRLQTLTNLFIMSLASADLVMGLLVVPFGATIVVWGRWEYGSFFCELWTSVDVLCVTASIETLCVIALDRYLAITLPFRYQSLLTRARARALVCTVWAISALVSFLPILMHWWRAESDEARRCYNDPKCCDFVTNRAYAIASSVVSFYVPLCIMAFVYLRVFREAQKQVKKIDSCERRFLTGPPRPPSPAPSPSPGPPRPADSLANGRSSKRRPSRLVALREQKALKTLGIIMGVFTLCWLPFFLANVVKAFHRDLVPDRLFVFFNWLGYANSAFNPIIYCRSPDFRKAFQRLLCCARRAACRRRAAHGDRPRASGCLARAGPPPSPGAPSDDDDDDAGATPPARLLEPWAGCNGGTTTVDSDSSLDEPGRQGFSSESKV
T2 sequence (P10608 whole entry): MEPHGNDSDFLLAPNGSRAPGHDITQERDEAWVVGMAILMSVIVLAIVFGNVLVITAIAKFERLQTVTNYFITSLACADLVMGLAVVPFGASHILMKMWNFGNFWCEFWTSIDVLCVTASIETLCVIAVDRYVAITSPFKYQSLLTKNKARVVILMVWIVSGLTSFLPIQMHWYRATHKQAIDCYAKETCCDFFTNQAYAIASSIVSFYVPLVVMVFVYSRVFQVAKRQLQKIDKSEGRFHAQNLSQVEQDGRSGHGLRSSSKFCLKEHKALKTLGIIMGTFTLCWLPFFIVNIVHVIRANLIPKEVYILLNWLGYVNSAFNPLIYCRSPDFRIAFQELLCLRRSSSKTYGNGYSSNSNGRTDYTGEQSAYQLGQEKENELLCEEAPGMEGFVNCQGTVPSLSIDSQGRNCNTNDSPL
β3-adrenoceptor, sequence (M3YEU4 1-435): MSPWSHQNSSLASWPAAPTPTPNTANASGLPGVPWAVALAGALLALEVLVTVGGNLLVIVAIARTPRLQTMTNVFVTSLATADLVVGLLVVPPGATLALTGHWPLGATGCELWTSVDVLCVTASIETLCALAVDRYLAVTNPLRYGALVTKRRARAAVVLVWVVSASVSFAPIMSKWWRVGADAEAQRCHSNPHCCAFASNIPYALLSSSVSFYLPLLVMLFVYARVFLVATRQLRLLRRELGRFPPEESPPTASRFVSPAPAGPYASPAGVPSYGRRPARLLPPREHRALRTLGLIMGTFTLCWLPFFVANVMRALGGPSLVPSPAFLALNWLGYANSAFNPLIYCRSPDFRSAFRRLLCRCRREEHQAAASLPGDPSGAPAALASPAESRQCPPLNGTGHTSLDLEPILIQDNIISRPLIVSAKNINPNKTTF

EC50 [3] | Structure (SMILES) | EC50 [2] | also measured
– | C[C@H](Cc1ccc(OCC(=O)O)cc1)NC[C@H](O)c1cccc(Cl)c1 [(R,R)-BRL-37344, reference compound] | – | EC50 [1]: 0.0016 µM; EC50 ([2]; read-out: EC50 value (concentration required to produce 50% increase of heart rate per minute)): 0.27 µM; EC50 ([3]; read-out: EC50 value (concentration required to produce 50% of the inhibition of uterine contraction)): 0.009 µM
10 µM | C[C@H](NCCc1ccc(OCC(=O)O)c(Br)c1)[C@H](O)c1ccc(O)cc1 [Compound 24] | > 100 µM | –
– | C[C@H](NCCc1ccc(OCC(=O)O)c(Cl)c1)[C@H](O)c1ccc(O)cc1 [Compound 25, 2-[2-Chloro-4-[2-[[(1S,2R)-2-hydroxy-2-(4-hydroxyphenyl)-1-methylethyl]amino]ethyl]phenoxy]acetic acid] | 70 µM | –
1.4 µM | C[C@H](NCCc1cc(Cl)c(OCC(=O)O)c(Cl)c1)[C@H](O)c1ccc(O)cc1 [Compound 26] | > 100 µM | –
0.49 µM | C[C@H](NCCc1cc(Cl)c(OCC(=O)O)cc1Cl)[C@H](O)c1ccc(O)cc1 [Compound 27, 2-[2,5-Dichloro-4-[2-[[(1S,2R)-2-hydroxy-2-(4-hydroxyphenyl)-1-methylethyl]amino]ethyl]phenoxy]acetic acid] | 49 µM | –
1.8 µM | C[C@H](NCCc1ccc(OCC(=O)O)c(F)c1)[C@H](O)c1ccc(O)cc1 [Compound 28, 2-[2-Fluoro-4-[2-[[(1S,2R)-2-hydroxy-2-(4-hydroxyphenyl)-1-methylethyl]amino]ethyl]phenoxy]acetic acid] | 30 µM | –
25 µM | CCOc1cc(CCN[C@@H](C)[C@H](O)c2ccc(O)cc2)ccc1OCC(=O)O [Compound 30, 2-[2-Ethoxy-4-[2-[[(1S,2R)-2-hydroxy-2-(4-hydroxyphenyl)-1-methylethyl]amino]ethyl]phenoxy]acetic acid] | > 100 µM | –
1.9 µM | C[C@H](NCCc1ccc(OCC(=O)O)c(OCc2ccccc2)c1)[C@H](O)c1ccc(O)cc1 [Compound 31, 2-[2-Benzyloxy-4-[2-[[(1S,2R)-2-hydroxy-2-(4-hydroxyphenyl)-1-methylethyl]amino]ethyl]phenoxy]acetic acid] | > 100 µM | –
13 µM | Cc1cc(CCN[C@@H](C)[C@H](O)c2ccc(O)cc2)ccc1OCC(=O)O [Compound 33] | 31 µM | –
1.8 µM | Cc1cc(OCC(=O)O)c(C)cc1CCN[C@@H](C)[C@H](O)c1ccc(O)cc1 [Compound 35, 2-[4-[2-[[(1S,2R)-2-Hydroxy-2-(4-hydroxyphenyl)-1-methylethyl]amino]ethyl]-2,5-dimethylphenoxy]acetic acid] | 38 µM | –
20 µM | C[C@H](NCCc1ccc(OCC(=O)O)c(C(F)(F)F)c1)[C@H](O)c1ccc(O)cc1 [Compound 36, 2-[4-[2-[[(1S,2R)-2-Hydroxy-2-(4-hydroxyphenyl)-1-methylethyl]amino]ethyl]-2-(trifluoromethyl)phenoxy]acetic acid hydrochloride] | > 100 µM | –
76 µM | C[C@H](NCCc1ccc(OCC(=O)O)c(C#N)c1)[C@H](O)c1ccc(O)cc1 [Compound 37, 2-[2-Cyano-4-[2-[[(1S,2R)-2-hydroxy-2-(4-hydroxyphenyl)-1-methylethyl]amino]ethyl]phenoxy]acetic acid] | 33 µM | –
2.6 µM | C[C@H](NCCc1ccc(OCC(=O)O)c([N+](=O)[O-])c1)[C@H](O)c1ccc(O)cc1 [Compound 38, 2-[4-[2-[[(1S,2R)-2-Hydroxy-2-(4-hydroxyphenyl)-1-methylethyl]amino]ethyl]-2-nitrophenoxy]acetic acid] | 58 µM | –
1 µM | CCOC(=O)COc1ccc(CCN[C@@H](C)[C@H](O)c2ccc(O)cc2)cc1NC=O [Compound 40, Ethyl 2-[2-Formylamino-4-[2-[[(1S,2R)-2-hydroxy-2-(4-hydroxyphenyl)-1-methylethyl]amino]ethyl]phenoxy]acetate] | 3.5 µM | –
53 µM | C[C@H](NCCc1ccc(OCC(=O)O)c(C(=O)N(C)C)c1)[C@H](O)c1ccc(O)cc1 [Compound 43, 2-[2-(Dimethylaminocarbonyl)-4-[2-[[(1S,2R)-2-hydroxy-2-(4-hydroxyphenyl)-1-methylethyl]amino]ethyl]phenoxy]acetic acid] | 58 µM | –
0.21 µM | C[C@H](NCCc1ccc(OCC(=O)O)c(O)c1)[C@H](O)c1ccc(O)cc1 [Compound 46, 2-[2-Hydroxy-4-[2-[[(1S,2R)-2-hydroxy-2-(4-hydroxyphenyl)-1-methylethyl]amino]ethyl]phenoxy]acetic acid] | 21 µM | –
17 µM | C[C@H](NCCc1ccc(OCC(=O)O)c(N(C)C)c1)[C@H](O)c1ccc(O)cc1 [Compound 47, 2-[2-Dimethylamino-4-[2-[[(1S,2R)-2-hydroxy-2-(4-hydroxyphenyl)-1-methylethyl]amino]ethyl]phenoxy]acetic acid] | > 100 µM | –
– | CCOC(=O)COc1ccc(CCN[C@@H](C)[C@H](O)c2ccc(O)cc2)cc1Cl.Cl [Compound 48, Ethyl 2-[2-chloro-4-[2-[[(1S,2R)-2-hydroxy-2-(4-hydroxyphenyl)-1-methylethyl]amino]ethyl]phenoxy]acetate hydrochloride] | 17 µM | Death of animals (acute toxicity) ([4]; listed as ethyl 2-[2-chloro-4-[2-[[(1S,2R)-2-hydroxy-2-(4-hydroxyphenyl)1-methylethyl]amin): No death of animals was observed; Death of animals (acute toxicity) ([4]; listed as ethyl 2-[2-chloro-4-[2-[[(1S,2R)-2-hydroxy-2-(4-hydroxyphenyl)-1-methylethyl]ami): no death was observed
0.061 µM | CCOC(=O)COc1cc(Cl)c(CCN[C@@H](C)[C@H](O)c2ccc(O)cc2)cc1Cl [Compound 49, Ethyl 2-[2,5-dichloro-4-[2-[[(1S,2R)-2-hydroxy-2-(4-hydroxyphenyl)-1-methylethyl]amino]ethyl]phenoxy]acetate hydrochloride] | 6.8 µM | –

Structure (SMILES) | EC50 [3] | EC50 [2] | also measured
COc1cc(CCN[C@@H](C)[C@H](O)c2ccc(O)cc2)ccc1OCC(=O)O [Compound 29, 2-(4-[2-[[(1S,2R)-2-Hydroxy-2-(4-hydroxyphenyl)-1-methylethyl]amino]ethyl]-2-methoxyphenoxy]acetic acid] | 3.9 µM | > 100 µM | –
